{"source": "patent US12473310B2", "about": "“Vitamin D3 phosphate and pharmaceutically acceptable salts thereof, pharmaceutical compositions comprising the compound and methods for preparing the compound” (King's College London, priority 2020, dated 2025)", "key": {"[1]": {"assay": "chemical stability on storage over 4 weeks", "type": "physicochemical", "experimental": "The chemical stability of cholecalciferol phosphate acid/disodium salt was assessed in three different conditions over a 4-week period. Aliquots of 2 mg for each sample was stored at room temperature, 4° C., and −20° C. in a glass bottle covered with foil. A 20 mL sample of MeOH and MeOH:water (90:10) was added to cholecalciferol phosphate acid and cholecalciferol phosphate disodium salt, and the concentration and purity were assessed every week by the HPLC method described previously. The peak area was used to calculate sample concentration and the gradient of the data points being used to calculate the degradation rate."}, "[2]": {"assay": "solubility of disodium salt in water by HPLC", "type": "physicochemical", "details": "thermodynamic from solid, distilled water", "experimental": "Cholecalciferol phosphate disodium salt was added into 1.5 mL distilled water until it generated precipitation. The supersaturated solution was filtered into a glass bottle through a 0.45 μm syringe filter, diluted in water (1:100), then MeOH was added to make MeOH:water (90:10), and injected into the HPLC."}, "[3]": {"assay": "physchem", "type": "physicochemical", "details": "22 °C, organic solvent or mixture, thermodynamic from solid, HPLC", "experimental": "An aliquot of 2.5 mg cholecalciferol and 2.5 mg cholecalciferol phosphate disodium salt prepared according to Example 1 were weighed into glass vials and 100 μL aliquots of the test solvents with different dielectric constants; water, MeOH:water (90:10), ethylene glycol, methanol (MeOH), propylene glycol (PG), ethanol (EtOH), poly(ethylene glycol) (PEG-400), and mineral oil were added until the sample was fully dissolved visually. A precise determination of the solubility was undertaken using high-performance liquid chromatography (HPLC). In the HPLC solubility studies an excess amount of cholecalciferol and cholecalciferol phosphate was added into 2 mL of each test solvent; water, MeOH:water (90:10), MeOH, and PG, EtOH and mineral oil. The solutions were left stirring overnight at room temperature, (RT), 22° C. The saturation of the solutions was confirmed by the visual appearance of crystals and the drug suspensions were filtered through 0.2 μm syringe filters, diluted, and the concentration of each sample was assessed using the HPLC method detailed below.\nHPLC analysis was conducted using an HPLC system consisting of an auto-sample injector (Jasco AS-4050, Japan), a pump (Jasco PU-4180, Japan), and a photodiode array detector (Jasco MD-4017, Japan). The data was collected and analysed using the ChromNAV software. […]"}, "[4]": {"assay": "patch pre-formulation, saturated concentration in adhesive", "type": "physicochemical", "details": "DURO-TAK 87-2051 adhesive; phosphate disodium salt", "experimental": "To each solution, 175 μL of the transdermal adhesive DURO-TAK 87-2051 (51.5 w/v %) was added, and vortexed. Then 2.0 μL of α-tocopherol and 2.5 μL of diethylene glycol monoethyl ether were added and vortexed. The visual solubility was assessed.\nTo this solution 4 mg of α-tocopherol in 3 mL ethyl acetate was added and 167 μL of the transdermal adhesive DURO-TAK 87-2051 (51.5 w/v %) in 7 mL ethyl acetate with 6 μL diethylene glycol monoethyl ether was also added.\nEach solution (3×3 cm) was cast onto the backing (3M™ Scotchpak™ Polyester Backing Film Laminate 9730, UK) to determine the clarity, and the saturation limit of the test agents in the adhesive mixtures."}, "[5]": {"parameters": "species or system porcine", "experimental": "To verify the percentage of drug that could be recovered from each layer of the skin, each layer was isolated for a 2.19±0.21 cm^2 piece of skin, the drug was spiked into each layer, it was incubated and then recovered. For the SC tape stripping as described above was used to isolate the skin layer. A total of 20 pieces of tape were used to remove the SC and these strips were added into sample bottles. The epidermis was removed from the dermis, cut into small pieces, and placed into bottles. The test solutions were spiked (500 μL) into a sample bottle containing the SC and (200 μL) into the sample bottles containing the epidermis and dermis. The samples containing the spiked drugs were left for 1 h for the drugs to absorb into the tissues. After the 1 h incubation period, 10 mL of extraction fluid (PG:EtOH, 50:50 for cholecalciferol and MeOH:water, 90:10 for cholecalciferol phosphate) was added into SC, and 2 mL of extraction fluid was added into epidermis and dermis then incubated in a shaking water bath overnight at 32° C. The solutions with both epidermis and dermis were then homogenised by Ultra Turrax for 1 min and filtered using 0.2 μm syringe filters and analysed by HPLC method."}}, "note": "Where a name gives a salt, the structure may show the parent alone.", "data": [{"smiles": "C=C1CC[C@H](OP(=O)(O)O)C/C1=C/C=C1\\CCC[C@@]2(C)C1CC[C@@H]2[C@H](C)CCCC(C)C", "note": "(stereo partly drawn) [Cholecalciferol phosphate disodium salt, cholecalciferol phosphate disodium salt]", "values": [{"measurement": "change of purity over 4 weeks", "setting": "[1]; all storage conditions", "result": "less than 1%"}, {"measurement": "degradation over 4 weeks", "setting": "[1]; room temperature, 4° C. and −20° C.", "result": "did not degrade at any of the storage conditions"}, {"measurement": "solubility", "setting": "[2]", "result": 78.7, "unit": "mg/mL"}, {"measurement": "solubility", "setting": "[3]", "result": 3.7, "unit": "mg/mL"}, {"measurement": "saturated concentration in patch formulation (highest loading without precipitation)", "setting": "[4]", "result": 13.57, "unit": "w/w %"}]}, {"smiles": "C=C1CC[C@H](O)C/C1=C/C=C1\\CCC[C@]2(C)[C@@H]([C@H](C)CCCC(C)C)CC[C@@H]12", "note": "[Cholecalciferol, cholecalciferol, reference compound]", "values": [{"measurement": "% Recovery, drug extraction validation, Epidermis", "setting": "[5]", "result": "104.86 ± 0.54", "unit": "%"}]}]}
